Structures are written as SMILES.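 Five compound concentrations were applied to cells in 96-well plates for 48 hours; endpoints were derived by simple linear interpolation of the resulting dose-response curve. At the TGI there is no net growth.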

Test systems include ACHN renal; BT-549 breast; COLO 205 colon; EKVX NSCLC; HL-60(TB) leukemia; HOP-62 NSCLC; HS 578T breast; KM12 colon; MDA-N; NCI-H226 lung; NCI-H460 lung; NCI/ADR-RES ovarian; OVCAR-4 ovarian; OVCAR-5 ovarian; SF-268 CNS; T-47D breast; PC-3 prostate; SR leukemia; SK-MEL-28 melanoma.
Holding throughout (experiment): NCI-60 cell line screen, 48 h

As to `CCN1C(=O)C(=C/C=C/C=C2/N(C)c3ccccc3C2(C)C)C(=O)N(CC)C1=S`, the TGI is > 100 µM in the experiment with ACHN renal; 70.9 µM in the experiment with BT-549 breast; > 100 µM with COLO 205 colon; > 100 µM in the experiment on EKVX NSCLC; > 100 µM in the experiment with HL-60(TB) leukemia; > 100 µM in the experiment on HOP-62 NSCLC. In addition, the TGI in the experiment on HS 578T breast, in the experiment on KM12 colon, in the experiment on MDA-N, with NCI-H226 lung, with NCI-H460 lung and with NCI/ADR-RES ovarian was > 100 µM throughout. For the same compound, the TGI with OVCAR-4 ovarian, in the experiment on OVCAR-5 ovarian, in the experiment on SF-268 CNS and in the experiment on T-47D breast was > 100 µM throughout.

`CC(NO)/C(=N/O)c1ccco1` (stereo not drawn): the TGI with ACHN renal, in the experiment with BT-549 breast, with COLO 205 colon, in the experiment with EKVX NSCLC, with HL-60(TB) leukemia and in the experiment with HOP-62 NSCLC was > 10 µM each time. Further, the TGI with KM12 colon, with MDA-N, in the experiment on NCI-H226 lung, in the experiment on NCI-H460 lung, in the experiment with NCI/ADR-RES ovarian and in the experiment with OVCAR-4 ovarian was > 10 µM each time. Besides, the TGI with OVCAR-5 ovarian, in the experiment on PC-3 prostate, with SF-268 CNS, with SR leukemia and in the experiment with T-47D breast was > 10 µM throughout.

For `COc1cccc2c1CCc1cc3c(N)nc(N)nc3nc1-2`, the TGI amounted to 36.5 µM with ACHN renal; 52.1 µM in the experiment on BT-549 breast; 29.8 µM in the experiment with COLO 205 colon; 15.3 µM with EKVX NSCLC; 20.1 µM with HOP-62 NSCLC; 37.5 µM in the experiment on KM12 colon. Further, the TGI worked out at 18.1 µM in the experiment on MDA-N; 43.2 µM in the experiment on NCI-H226 lung; 25 µM with NCI-H460 lung; 46.7 µM with NCI/ADR-RES ovarian; 32.5 µM with OVCAR-4 ovarian; 21.3 µM with OVCAR-5 ovarian. Moreover, the TGI with PC-3 prostate is 18.3 µM; with SF-268 CNS, 42.4 µM; with SK-MEL-28 melanoma, 11 µM; in the experiment on SR leukemia, > 34.5 µM; with T-47D breast, > 67.7 µM.

For the compound `CCOC(=O)CCC(NC(=O)c1ccc(Oc2nc3ccccc3nc2-c2ccccc2)cc1)C(=O)OCC` (stereo not drawn), the TGI was > 66.9 µM with ACHN renal; > 100 µM in the experiment with COLO 205 colon; > 100 µM with EKVX NSCLC; > 100 µM in the experiment with HL-60(TB) leukemia; 45.1 µM in the experiment with HOP-62 NSCLC; 27.3 µM in the experiment with HS 578T breast. In addition, the TGI with KM12 colon is > 100 µM; with MDA-N, > 85.4 µM; in the experiment on NCI-H226 lung, 33 µM; in the experiment with NCI-H460 lung, > 100 µM; with NCI/ADR-RES ovarian, 27.7 µM; in the experiment on OVCAR-4 ovarian it was 65.6 µM. In addition, the TGI in the experiment on OVCAR-5 ovarian was > 100 µM; in the experiment on PC-3 prostate, > 100 µM; with SF-268 CNS, 28.2 µM; in the experiment with SK-MEL-28 melanoma, > 100 µM; in the experiment on SR leukemia, > 100 µM; in the experiment on T-47D breast, > 72.1 µM.

As for `O=S(=O)(c1ccccc1)C(c1ccc2ccccc2n1)S(=O)(=O)c1ccccc1`, the TGI in the experiment on ACHN renal, with BT-549 breast, in the experiment with COLO 205 colon, in the experiment with EKVX NSCLC, in the experiment with HL-60(TB) leukemia and in the experiment with HOP-62 NSCLC was > 100 µM in each case. For the same compound, the TGI in the experiment with HS 578T breast, in the experiment with KM12 colon, in the experiment with MDA-N, in the experiment with NCI-H226 lung, in the experiment on NCI-H460 lung and in the experiment on NCI/ADR-RES ovarian was > 100 µM each time. The TGI in the experiment with OVCAR-4 ovarian, in the experiment on OVCAR-5 ovarian, with PC-3 prostate, in the experiment on SF-268 CNS, in the experiment with SK-MEL-28 melanoma and in the experiment on SR leukemia was > 100 µM each time.

Consider `C=CC1CCC[N+]1(CC(=O)OCC)Cc1ccccc1` (stereo not drawn), for which the TGI in the experiment on ACHN renal, with BT-549 breast, with COLO 205 colon, with EKVX NSCLC, with HL-60(TB) leukemia and in the experiment on HOP-62 NSCLC was > 100 µM in each case. Besides, the TGI in the experiment on MDA-N, in the experiment on NCI-H226 lung, with NCI-H460 lung, with NCI/ADR-RES ovarian, in the experiment on OVCAR-4 ovarian and with OVCAR-5 ovarian was > 100 µM throughout. The TGI in the experiment with PC-3 prostate, in the experiment with SF-268 CNS, with SK-MEL-28 melanoma, in the experiment with SR leukemia and in the experiment with T-47D breast was > 100 µM in each case.

Consider `CCO/C=N\c1c(C#N)c(-c2ccc(Cl)cc2)cn1-c1ccc(C)cc1`, for which the TGI in the experiment with ACHN renal, in the experiment with BT-549 breast, with COLO 205 colon, in the experiment on EKVX NSCLC, with HL-60(TB) leukemia and in the experiment on HOP-62 NSCLC was > 100 µM each time. In addition, the TGI in the experiment on HS 578T breast, in the experiment with MDA-N, with NCI-H226 lung, in the experiment with NCI-H460 lung, with NCI/ADR-RES ovarian and in the experiment on OVCAR-4 ovarian was > 100 µM throughout. Moreover, the TGI in the experiment on OVCAR-5 ovarian, in the experiment with PC-3 prostate, with SF-268 CNS, in the experiment with SK-MEL-28 melanoma and in the experiment on SR leukemia was > 100 µM each time.

With `C=CCN1C(=O)/C(=C\c2cc(C(C)(C)C)c(O)c(C(C)(C)C)c2)NC1=S`, the TGI with ACHN renal was 90.2 µM; with BT-549 breast, > 100 µM; in the experiment on COLO 205 colon it was 32.4 µM; in the experiment on EKVX NSCLC, 65.1 µM; in the experiment on HL-60(TB) leukemia it was 25.1 µM; with HOP-62 NSCLC it was 51.5 µM. Also, the TGI in the experiment on HS 578T breast is > 100 µM; with KM12 colon, 72.6 µM; in the experiment with MDA-N, > 100 µM; in the experiment on NCI-H226 lung it was 74.9 µM; in the experiment on NCI-H460 lung, 36.8 µM; with NCI/ADR-RES ovarian, > 100 µM. In addition, the TGI in the experiment on OVCAR-4 ovarian was > 100 µM; with OVCAR-5 ovarian, > 100 µM; in the experiment on PC-3 prostate, 42 µM; in the experiment on SF-268 CNS, > 100 µM; with SK-MEL-28 melanoma, > 100 µM; in the experiment on SR leukemia it was > 100 µM.

These data come from PubChem BioAssay (NCI).
